Data from ChEMBL document CHEMBL1201862, “PubChem BioAssay data set” (2004).
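Results reflect a 48-hour exposure of cells in 96-well plates to compound at five concentrations. GI50: concentration for 50% inhibition of growth.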 Activity calls are given as the source filed them. No stated cut-off is given here; in the data, active = GI50 up to about 1.1 µM and inactive = higher.

How the values were obtained:
Test in all cases: NCI tumour cell line growth inhibition, 48 h
M14 = system: M14
SF-268 = system: SF-268
NCI/ADR-RES = system: NCI/ADR-RES
MDA-MB-435 = system: MDA-MB-435
HCT-116 = system: HCT-116
KM12 = system: KM12
786-0 = system: 786-0
SN12C = system: SN12C
RPMI-8226 = system: RPMI-8226
HCT-15 = system: HCT-15
ACHN = system: ACHN
OVCAR-8 = system: OVCAR-8
SK-MEL-28 = system: SK-MEL-28
HT-29 = system: HT-29
Malme-3M = system: Malme-3M
SNB-75 = system: SNB-75
MDA-MB-231 = system: MDA-MB-231
OVCAR-4 = system: OVCAR-4
SF-539 = system: SF-539
OVCAR-5 = system: OVCAR-5
HL-60 = system: HL-60
T47D = system: T47D
DU-145 = system: DU-145
CCRF-CEM = system: CCRF-CEM
SNB-19 = system: SNB-19
A498 = system: A498
HOP-92 = system: HOP-92
BT-549 = system: BT-549
HCC 2998 = system: HCC 2998
EKVX = system: EKVX
SK-MEL-5 = system: SK-MEL-5
U-251 = system: U-251
UACC-257 = system: UACC-257
SW-620 = system: SW-620
TK-10 = system: TK-10
LOX IMVI = system: LOX IMVI
NCI-H522 = system: NCI-H522
NCI-H23 = system: NCI-H23
A549 = system: A549
SK-MEL-2 = system: SK-MEL-2
COLO 205 = system: COLO 205
NCI-H226 = system: NCI-H226
MCF7 = system: MCF7
NCI-H460 = system: NCI-H460
UO-31 = system: UO-31
SR = system: SR
CAKI-1 = system: CAKI-1
Hs-578T = system: Hs-578T
HOP-62 = system: HOP-62
MDA-N = system: MDA-N
RXF 393 = system: RXF 393
IGROV-1 = system: IGROV-1
PC-3 = system: PC-3
MOLT-4 = system: MOLT-4
UACC-62 = system: UACC-62
SF-295 = system: SF-295
OVCAR-3 = system: OVCAR-3
K562 = system: K562
SK-OV-3 = system: SK-OV-3

CN(C)c1ccc(/C=N\NC(=O)Nc2cccc3ccccc23)cc1
GI50 (M14): 5.37 µM (inactive)
GI50 (SF-268): 13 µM (inactive)
GI50 (NCI/ADR-RES): 7.41 µM (inactive)
GI50 (MDA-MB-435): 0.927 µM (active)
GI50 (HCT-116): 5.52 µM (inactive)
GI50 (KM12): 2.61 µM (inactive)
GI50 (786-0): 5.74 µM (inactive)
GI50 (SN12C): 11.8 µM (inactive)
GI50 (RPMI-8226): 4.28 µM (inactive)
GI50 (HCT-15): 1.53 µM
GI50 (ACHN): 6.98 µM (inactive)
GI50 (OVCAR-8): 14.9 µM (inactive)
GI50 (SK-MEL-28): 19.1 µM (inactive)
GI50 (HT-29): 2.62 µM (inactive)
GI50 (Malme-3M): 4.03 µM (inactive)
GI50 (SNB-75): 9.02 µM (inactive)
GI50 (MDA-MB-231): 12.3 µM (inactive)
GI50 (OVCAR-4): 15.5 µM (inactive)
GI50 (SF-539): 4.4 µM (inactive)
GI50 (OVCAR-5): 19.4 µM (inactive)
GI50 (HL-60): 2.03 µM (inactive)
GI50 (T47D): 2.73 µM (inactive)
GI50 (DU-145): 6.71 µM (inactive)
GI50 (CCRF-CEM): 4.26 µM (inactive)
GI50 (SNB-19): 2.46 µM (inactive)
GI50 (A498): 8.99 µM (inactive)
GI50 (HOP-92): 20.3 µM (inactive)
GI50 (BT-549): 11.7 µM (inactive)
GI50 (HCC 2998): 9.51 µM (inactive)
GI50 (EKVX): 0.215 µM (active)
GI50 (SK-MEL-5): 3.97 µM (inactive)
GI50 (U-251): 5.82 µM (inactive)
GI50 (UACC-257): 3.74 µM (inactive)
GI50 (SW-620): 6.11 µM (inactive)
GI50 (TK-10): 12.2 µM (inactive)
GI50 (LOX IMVI): 4.15 µM (inactive)
GI50 (NCI-H522): 2.08 µM (inactive)
GI50 (NCI-H23): 4.75 µM (inactive)
GI50 (A549): 9.57 µM (inactive)
GI50 (SK-MEL-2): 2.9 µM (inactive)
GI50 (COLO 205): 4.99 µM (inactive)
GI50 (NCI-H226): 0.208 µM (active)
GI50 (MCF7): 3.86 µM (inactive)
GI50 (NCI-H460): 4.31 µM (inactive)
GI50 (UO-31): 13.2 µM (inactive)
GI50 (SR): 1.6 µM (inactive)
GI50 (CAKI-1): 3.25 µM (inactive)
GI50 (Hs-578T): 4.17 µM (inactive)
GI50 (HOP-62): 8.67 µM (inactive)
GI50 (MDA-N): 1.53 µM (inactive)
GI50 (RXF 393): 20.7 µM (inactive)
GI50 (IGROV-1): 9.91 µM (inactive)
GI50 (PC-3): 6.62 µM (inactive)
GI50 (MOLT-4): 4.56 µM (inactive)

O=C(CSc1nc2ccccc2c2ccccc12)c1ccccc1
GI50 (M14): > 100 µM (inactive)
GI50 (SF-268): > 100 µM (inactive)
GI50 (NCI/ADR-RES): > 100 µM (inactive)
GI50 (MDA-MB-435): > 100 µM (inactive)
GI50 (HCT-116): > 100 µM (inactive)
GI50 (KM12): > 100 µM (inactive)
GI50 (786-0): > 100 µM (inactive)
GI50 (SN12C): > 100 µM (inactive)
GI50 (UACC-62): > 100 µM (inactive)
GI50 (SF-295): > 100 µM (inactive)
GI50 (RPMI-8226): > 100 µM (inactive)
GI50 (HCT-15): > 100 µM
GI50 (ACHN): > 100 µM (inactive)
GI50 (OVCAR-8): > 100 µM (inactive)
GI50 (SK-MEL-28): > 100 µM (inactive)
GI50 (HT-29): > 100 µM (inactive)
GI50 (Malme-3M): > 100 µM (inactive)
GI50 (SNB-75): 13.8 µM (inactive)
GI50 (MDA-MB-231): > 100 µM (inactive)
GI50 (OVCAR-4): > 100 µM (inactive)
GI50 (SF-539): > 100 µM (inactive)
GI50 (OVCAR-5): > 100 µM (inactive)
GI50 (HL-60): > 100 µM (inactive)
GI50 (T47D): > 100 µM (inactive)
GI50 (DU-145): > 100 µM (inactive)
GI50 (SNB-19): > 100 µM (inactive)
GI50 (OVCAR-3): > 100 µM (inactive)
GI50 (A498): > 100 µM (inactive)
GI50 (HOP-92): > 100 µM (inactive)
GI50 (BT-549): > 100 µM (inactive)
GI50 (EKVX): > 100 µM (inactive)
GI50 (SK-MEL-5): > 100 µM (inactive)
GI50 (K562): > 100 µM (inactive)
GI50 (U-251): > 100 µM (inactive)
GI50 (UACC-257): > 100 µM (inactive)
GI50 (SW-620): > 100 µM (inactive)
GI50 (TK-10): > 100 µM (inactive)
GI50 (LOX IMVI): > 100 µM (inactive)
GI50 (NCI-H522): > 100 µM (inactive)
GI50 (NCI-H23): > 100 µM (inactive)
GI50 (A549): > 100 µM (inactive)
GI50 (SK-MEL-2): > 100 µM (inactive)
GI50 (COLO 205): > 100 µM (inactive)
GI50 (NCI-H226): > 100 µM (inactive)
GI50 (MCF7): > 100 µM (inactive)
GI50 (NCI-H460): > 100 µM (inactive)
GI50 (UO-31): > 100 µM (inactive)
GI50 (SR): > 100 µM (inactive)
GI50 (CAKI-1): > 100 µM (inactive)
GI50 (Hs-578T): 0.0226 µM (active)
GI50 (HOP-62): > 100 µM (inactive)
GI50 (MDA-N): > 100 µM (inactive)
GI50 (RXF 393): > 100 µM (inactive)
GI50 (IGROV-1): > 100 µM (inactive)
GI50 (PC-3): > 100 µM (inactive)
GI50 (MOLT-4): > 100 µM (inactive)

Nc1[nH]nc2ccccc12
GI50 (M14): > 100 µM (inactive)
GI50 (SF-268): > 100 µM (inactive)
GI50 (NCI/ADR-RES): > 100 µM (inactive)
GI50 (MDA-MB-435): > 100 µM (inactive)
GI50 (HCT-116): > 100 µM (inactive)
GI50 (KM12): > 100 µM (inactive)
GI50 (786-0): > 100 µM (inactive)
GI50 (SN12C): > 100 µM (inactive)
GI50 (UACC-62): 73.1 µM (inactive)
GI50 (SF-295): 77.8 µM (inactive)
GI50 (RPMI-8226): > 100 µM (inactive)
GI50 (HCT-15): 54.7 µM
GI50 (ACHN): > 100 µM (inactive)
GI50 (OVCAR-8): > 100 µM (inactive)
GI50 (SK-MEL-28): > 100 µM (inactive)
GI50 (HT-29): > 100 µM (inactive)
GI50 (Malme-3M): > 100 µM (inactive)
GI50 (SNB-75): > 100 µM (inactive)
GI50 (MDA-MB-231): > 100 µM (inactive)
GI50 (OVCAR-4): > 100 µM (inactive)
GI50 (SF-539): > 100 µM (inactive)
GI50 (OVCAR-5): 60 µM (inactive)
GI50 (HL-60): > 100 µM (inactive)
GI50 (T47D): > 100 µM (inactive)
GI50 (DU-145): > 100 µM (inactive)
GI50 (CCRF-CEM): > 100 µM (inactive)
GI50 (SNB-19): > 100 µM (inactive)
GI50 (OVCAR-3): > 100 µM (inactive)
GI50 (A498): > 100 µM (inactive)
GI50 (HOP-92): > 100 µM (inactive)
GI50 (BT-549): > 100 µM (inactive)
GI50 (EKVX): > 100 µM (inactive)
GI50 (SK-MEL-5): > 100 µM (inactive)
GI50 (K562): 28.5 µM (inactive)
GI50 (U-251): > 100 µM (inactive)
GI50 (UACC-257): > 100 µM (inactive)
GI50 (SW-620): > 100 µM (inactive)
GI50 (TK-10): > 100 µM (inactive)
GI50 (LOX IMVI): > 100 µM (inactive)
GI50 (NCI-H522): > 100 µM (inactive)
GI50 (NCI-H23): > 100 µM (inactive)
GI50 (A549): > 100 µM (inactive)
GI50 (SK-MEL-2): > 100 µM (inactive)
GI50 (COLO 205): > 100 µM (inactive)
GI50 (NCI-H226): > 100 µM (inactive)
GI50 (MCF7): > 100 µM (inactive)
GI50 (SK-OV-3): > 100 µM (inactive)
GI50 (NCI-H460): > 100 µM (inactive)
GI50 (UO-31): 83.4 µM (inactive)
GI50 (SR): 62.2 µM (inactive)
GI50 (CAKI-1): > 100 µM (inactive)
GI50 (Hs-578T): > 100 µM (inactive)
GI50 (HOP-62): > 100 µM (inactive)
GI50 (MDA-N): > 100 µM (inactive)
GI50 (RXF 393): > 100 µM (inactive)
GI50 (IGROV-1): > 100 µM (inactive)
GI50 (PC-3): > 100 µM (inactive)
GI50 (MOLT-4): > 100 µM (inactive)
